Experimental data reported in patent US20190151495A1, “Composite biomaterials with controlled release of active ingredient, preparation process and uses” (CENTRE NATIONAL DE LA RECHERCHE SCIENTIFIQUE, priority 2016, published 2019).

How the values were obtained:
[1] = molecular target: T1, mineralocorticoid receptor (Rattus norvegicus, UniProt P22199); assay: Biological activity of spironolactone: luciferase reporter in H9C2 cells incubated with aldosterone; type: cell-based; details: FIG. 12
T1 construct: H9C2 cells are myoblasts genetically modified by the incorporation of the reporter gene encoding luciferase; endogenous in cells; host or cells: H9C2 myoblasts carrying a luciferase reporter
T1 sequence (P22199 1-981): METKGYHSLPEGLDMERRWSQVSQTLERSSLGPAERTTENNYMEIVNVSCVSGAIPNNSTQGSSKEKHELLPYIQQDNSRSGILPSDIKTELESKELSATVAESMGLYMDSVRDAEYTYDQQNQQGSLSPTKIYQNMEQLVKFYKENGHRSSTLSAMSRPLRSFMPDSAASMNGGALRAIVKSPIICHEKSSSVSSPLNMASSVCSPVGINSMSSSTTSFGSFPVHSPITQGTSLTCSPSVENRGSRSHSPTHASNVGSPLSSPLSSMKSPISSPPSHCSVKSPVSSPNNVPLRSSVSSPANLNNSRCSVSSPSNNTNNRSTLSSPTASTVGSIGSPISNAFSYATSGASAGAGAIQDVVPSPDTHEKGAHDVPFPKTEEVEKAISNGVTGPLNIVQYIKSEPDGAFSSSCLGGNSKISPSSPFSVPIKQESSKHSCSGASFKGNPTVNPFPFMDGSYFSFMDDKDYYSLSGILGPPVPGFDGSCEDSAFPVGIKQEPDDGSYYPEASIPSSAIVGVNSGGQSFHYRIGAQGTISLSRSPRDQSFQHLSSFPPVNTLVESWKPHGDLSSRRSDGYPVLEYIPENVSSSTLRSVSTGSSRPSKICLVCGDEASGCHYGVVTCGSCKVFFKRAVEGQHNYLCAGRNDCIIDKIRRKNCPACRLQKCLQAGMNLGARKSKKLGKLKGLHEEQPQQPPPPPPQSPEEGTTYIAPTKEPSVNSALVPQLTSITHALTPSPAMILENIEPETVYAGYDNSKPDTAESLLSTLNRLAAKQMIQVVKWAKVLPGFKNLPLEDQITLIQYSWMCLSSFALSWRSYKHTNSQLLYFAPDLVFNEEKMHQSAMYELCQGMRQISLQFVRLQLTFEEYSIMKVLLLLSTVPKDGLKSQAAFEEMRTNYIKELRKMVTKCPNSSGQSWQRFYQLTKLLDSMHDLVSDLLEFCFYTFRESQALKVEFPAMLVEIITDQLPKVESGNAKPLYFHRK
Method: The biological activity of the spironolactone was measured in the following manner: H9C2 cells are myoblasts genetically modified by the incorporation of the reporter gene encoding luciferase downstream of the promoter having sequences binding the complex of aldosterone plus its receptor. When aldosterone was added, luciferase was expressed and detected by bioluminescence. […] This inhibition reports the biological activity of the spironolactone on H9C2s incubated with aldosterone. The spironolactone activity was measured directly on the spironolactone releasing liquid originating from the different types of hydrogels tested.
FIG. 12 represents the biological activity of the spironolactone released from a hydrogel after 15 days of incubation in PBS (with changing of the buffer every day); when the following are used:
(2) a mixture of a material MB-S with aldosterone at approximately 10^−8 M,
(3) a mixture of a material MC-S with aldosterone at approximately 10^−8 M,
(4) a mixture of a material MA-S with aldosterone at approximately 10^−8 M,
(5) a negative control (well containing the culture medium without aldosterone),
(6) aldosterone at approximately 10^−8 M, and
(7) a mixture of aldosterone at approximately 10^−8 M and spironolactone at approximately 10^−6 M.

[2] = system: primary human dermal fibroblasts; assay: Toxicity of the materials: cell viability by metabolic test (AlamarBlue Assay); type: cell-based; details: FIG. 11
Method: The toxicity of the materials was measured as follows: primary human dermal fibroblasts were seeded onto a culture plate. The composite hydrogels were then incubated with the fibroblasts for 1 or 6 days. The cell viability was measured by a metabolic test (AlamarBlue Assay®) and compared with that of control fibroblasts (without addition of composite hydrogel).
FIG. 11 represents the toxicity of the composite biomaterial of the invention M1-S on cells (fibroblasts) and by way of comparison: • the toxicity of a dry collagen material impregnated with spironolactone MB-S obtained from the dehydrated pure collagen material MA-HD as obtained in example 1.3 which was impregnated with a solution comprising approximately 10^−2 M of spironolactone in THF, rinsed and lyophilized in accordance with example 1.4 above, • the toxicity of a dry collagen material impregnated with PLGA MC-S obtained from the dehydrated pure collagen material MA-HD as obtained in example 1.3 which was impregnated with a solution comprising approximately 160 mg/ml of PLGA 30-60 kDa in THF, rinsed and lyophilized in accordance with example 1.4, and • the toxicity of a dry pure collagen material MA-S as obtained in example 1.3.
Moreover, C represents a negative control (well containing just the cells without hydrogel). […]

SMILES | production of luciferase (receptor activation) ([1]; aldosterone approximately 10^-8 M alone, conditions (6) versus negative control (5)) | toxicity on cells (in words) ([2]; 1 day and 6 days, compared with control) | cell viability (cells survived) ([2]; first day, relative to negative control C) | production of luciferase (inhibition of aldosterone effect) ([1]; free spironolactone approximately 10^-6 M with aldosterone approximately 10^-8 M, conditions (7))
C[C@]12CCC(=O)C=C1CC[C@@H]1[C@@H]2[C@@H](O)C[C@]2(C=O)[C@@H](C(=O)CO)CC[C@@H]12 [aldosterone] | caused strong transcription | – | – | –
CC(=O)S[C@@H]1CC2=CC(=O)CC[C@]2(C)[C@H]2CC[C@@]3(C)[C@@H](CC[C@@]34CCC(=O)O4)[C@H]12 [spironolactone] | – | slight toxic effect | 74% | the effect of the aldosterone is inhibited
